Reference: patent publication US20060049177A1, “Induction heating cooker” (LG Electronics Inc., priority 2004, published 2006)
Where two headings read alike, the source gives them in different places.

What was measured:
[1] = tested on: HIV-1; assay: in vitro anti-HIV assay: inhibition of HIV-induced cytopathic effect in MT-4 cells (MTT); format: cell-based; conditions: for SI: selectivity index = ratio of CC50 to IC50
Protocol: (§1) A rapid, sensitive and automated assay procedure was used for the in vitro evaluation of anti-HIV agents. An […] T4-cell line, MT-4, which was previously shown (Koyanagi et al., Int. J. Cancer, 36, 445-451, 1985) to be highly susceptible to and permissive for HIV infection, served as the target cell line. Inhibition of the HIV-induced cytopathic effect was used as the end point. The viability of both HIV- and mock-infected cells was assessed spectrophotometrically via the in situ reduction of 3-(4,5-dimethylthiazol-2-yl)-2,5-diphenyltetrazolium bromide (MTT). The 50% […], cytotoxic concentration (CC50 in μM) was defined as the concentration of compound that reduced the absorbance of the mock-infected control sample by 50%. The percent protection achieved by the compound in HIV-infected cells was calculated by the following formula: [formula]
(§2) whereby (ODT)HIV is the optical density measured with a given concentration of the test compound in HIV-infected cells; (ODC)HIV is the optical density measured for the control untreated HIV-infected cells; (ODC)MOCK is the optical density measured for the control untreated mock-infected cells; all optical density values were determined at 540 nm. The dose achieving 50% protection according to the above formula was defined as the 50% inhibitory concentration (IC50 in μM). The ratio of CC50 to IC50 was defined as the selectivity index (SI).

[2] = tested on: MT-4 cells; assay: cytotoxicity in mock-infected MT-4 cells (MTT)
Protocol: as §1, §2

[3] = Human immunodeficiency virus 1, MT4, HIV-infected MT-4 cells, dose achieving 50% protection against cytopathic effect, MTT, OD 540 nm, mean value, read-out: IC50
[4] = HIV-infected MT-4 cells, dose achieving 50% protection against cytopathic effect, MTT, OD 540 nm, mean value, read-out: IC50

Structure (SMILES)	IC50 [1, 3] [µM]	SI [1]	IC50 [1, 4] [µM]	CC50 [2] [µM]	IC50 ([1]; Human immunodeficiency virus 1, MT4) [µM]
N#Cc1ccc(Nc2nc(N)nc(Cc3c(Cl)cccc3Cl)n2)cc1 [Compound 1, 4-[[4-amino-6-[(2,6-dichlorophenyl)methyl]-1,3,5-triazin-2-yl]amino]benzonitrile]	0.002	>42553	–	–	–
N#Cc1ccc(Nc2nc(N)nc(Cc3ccccc3)n2)cc1 [Compound 2]	–	>350	0.29	> 100	–
N#Cc1ccc(Nc2nc(N)nc(Cc3ccccc3Cl)n2)cc1 [Compound 3]	–	3972	0.013	51.6	–
N#Cc1cccc(Nc2nc(N)nc(Cc3c(Cl)cccc3Cl)n2)c1 [Compound 4]	–	224	0.24	53.6	–
Nc1nc(Cc2c(Cl)cccc2Cl)nc(Nc2ccc(Cl)cc2)n1 [Compound 5]	–	2793	0.017	47.5	–
N#Cc1ccc(Nc2nc(N)nc(Cc3c(Cl)ccc4[nH]ccc34)n2)cc1 [Compound 8, 4-[[4-amino-6-[(5-chloro-1H-indol-4-yl)methyl]-1,3,5-triazin-2-yl]amino]benzonitrile]	–	4806	–	–	0.3
CN(C)c1nc(Cc2c(Cl)cccc2Cl)nc(Nc2ccc(C#N)cc2)n1 [Compound 10]	–	>602	0.17	> 100	–
N#Cc1ccc(Nc2nc(Cc3c(Cl)cccc3Cl)nc(NCC(N)=O)n2)cc1 [Compound 14, [N-[4-[(4-cyano-phenyl)amino]-6-[(2,6-dichlorophenyl)methyl]-1,3,5-triazin-2-yl]]aminoacetamide]	0.031	293	–	–	–
N#Cc1ccc(Nc2nc(Cc3c(Cl)cccc3Cl)nc(NN)n2)cc1 [Compound 15, 4-[[4-[(2,6-dichlorophenyl)methyl]-6-hydrazino-1,3,5-triazin-2yl]amino]benzonitrile]	0.061	732	–	–	–
N#Cc1ccc(Nc2nc(Cc3c(Cl)cccc3Cl)nc(NCC(=O)O)n2)cc1 [Compound 16, N-[4-[(4-cyanophenyl)-amino]-6-[(2,6-dichlorophenyl)methyl]-1,3,5-triazin-2-yl]glycine]	2.8	28	–	–	–
N#Cc1ccc(Nc2nc(Cc3c(Cl)cccc3Cl)nc(NC(=N)N)n2)cc1 [Compound 20, N-[4-[(4-cyanophenyl)amino]-6-[(2,6-dichlorophenyl)methyl]-1,3,5-triazin-2-yl]-guanidine]	> 100	<1	–	–	–
CC(=O)Nc1nc(Cc2c(Cl)cccc2Cl)nc(Nc2ccc(C#N)cc2)n1 [Compound 22, N-[4-[(4-cyanophenyl)amino]-6-[(2,6-dichlorophenyl)methyl)-1,3,5-triazin-2-yl]-acetamide]	0.014	>6993	–	–	–
N#Cc1ccc(Nc2nc(Cc3c(Cl)cccc3Cl)nc(NCCCNC(N)=O)n2)cc1 [Compound 23, N-[3-[[4-[(4-cyanophenyl)amino]-6-[(2,6-dichlorophenyl)methyl]-1,3,5-triazin-2-yl]amino]propyl]urea]	0.34	106	–	–	–
N#Cc1ccc(Nc2nc(Cc3c(Cl)cccc3Cl)nc(NO)n2)cc1 [Compound 33, 4-[[4-[(2,6-dichlorophenyl)methyl]-6-(hydroxyamino)-1,3,5-triazin-2-yl]amino]benzonitrile]	0.002	6272	–	–	–
CN(C)c1nc(Cc2c(Cl)cccc2Cl)nc(N(c2ccc(C#N)cc2)c2ccc(C#N)cc2)n1 [Compound 38, 4,4′-[[4-[(2,6-dichlorophenyl)methyl]-6-(dimethylamino)-1,3,5-triazin-2-yl]imino]bisbenzonitrile]	> 100	–	–	–	–
N#Cc1ccc(Nc2nc(N)nc(Cc3c(F)ccc(F)c3F)n2)cc1 [Compound 52]	–	>220	0.003	–	–
CN(C)C=Nc1nc(Cc2c(Cl)cccc2Cl)nc(Nc2ccc(C#N)cc2)n1 [Compound 62, 4-[[4-[(2,6-dichlorophenyl)methyl]-6-[[(dimethylamino)methylene]amino]-1,3,5-triazin-2-yl]amino]benzonitrile]	0.002	>41666	–	–	–
